pIC50, pKd: −log10 of the molar value. Values after ≈ are worked out from the molar mass of the structure shown.
Key:
[1] = target: T1, Tyrosine-protein kinase BTK (Homo sapiens, UniProt Q06187); experiment: Inhibition of BTK (unknown origin)
[2] = Inhibition of CD69 expression on CD19 positive B cells in anti-IgD stimulated human whole blood; format: functional, tissue-based; conditions: CD19 positive B cell
[3] = Metabolic stability in human liver microsomes assessed as intrinsic clearance; format: ADME, Microsome; conditions: read-out: CLH
[4] = Metabolic stability in rat liver microsomes assessed as intrinsic clearance; format: ADME, Microsome; conditions: read-out: CLH
[5] = Plasma protein binding in human assessed as unbound fraction by rapid equilibrium dialysis method; format: ADME, cell-free
[6] = target: T1, Tyrosine-protein kinase BTK; experiment: Inhibition of pBTK in human whole blood; format: tissue-based
[7] = Clearance in iv dosed Sprague-Dawley rat; format: ADME, organism-based; conditions: in vivo
[8] = target: Tyrosine-protein kinase Blk (Homo sapiens, UniProt P51451); experiment: Binding affinity to BLK (unknown origin) assessed as dissociation constant by KINOMEscan analysis
Sequence of Tyrosine-protein kinase Blk (P51451 whole entry): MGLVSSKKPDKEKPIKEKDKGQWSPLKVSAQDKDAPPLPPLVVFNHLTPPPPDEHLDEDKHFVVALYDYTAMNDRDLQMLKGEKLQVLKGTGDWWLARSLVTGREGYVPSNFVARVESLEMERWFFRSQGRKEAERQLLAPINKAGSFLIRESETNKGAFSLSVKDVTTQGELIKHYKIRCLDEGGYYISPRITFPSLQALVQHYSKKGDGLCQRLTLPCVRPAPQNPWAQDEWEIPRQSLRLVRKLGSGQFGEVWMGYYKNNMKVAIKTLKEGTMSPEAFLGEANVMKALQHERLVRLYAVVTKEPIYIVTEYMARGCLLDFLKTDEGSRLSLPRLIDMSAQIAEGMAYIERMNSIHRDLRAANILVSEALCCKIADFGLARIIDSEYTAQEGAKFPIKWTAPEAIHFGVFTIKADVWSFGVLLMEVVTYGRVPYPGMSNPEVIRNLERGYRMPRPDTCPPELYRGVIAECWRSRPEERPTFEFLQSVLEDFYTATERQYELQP

[9] = target: T2, Tyrosine-protein kinase TXK (Homo sapiens, UniProt P42681); experiment: Binding affinity to TXK (unknown origin) assessed as dissociation constant by KINOMEscan analysis
T2 sequence (P42681 whole entry): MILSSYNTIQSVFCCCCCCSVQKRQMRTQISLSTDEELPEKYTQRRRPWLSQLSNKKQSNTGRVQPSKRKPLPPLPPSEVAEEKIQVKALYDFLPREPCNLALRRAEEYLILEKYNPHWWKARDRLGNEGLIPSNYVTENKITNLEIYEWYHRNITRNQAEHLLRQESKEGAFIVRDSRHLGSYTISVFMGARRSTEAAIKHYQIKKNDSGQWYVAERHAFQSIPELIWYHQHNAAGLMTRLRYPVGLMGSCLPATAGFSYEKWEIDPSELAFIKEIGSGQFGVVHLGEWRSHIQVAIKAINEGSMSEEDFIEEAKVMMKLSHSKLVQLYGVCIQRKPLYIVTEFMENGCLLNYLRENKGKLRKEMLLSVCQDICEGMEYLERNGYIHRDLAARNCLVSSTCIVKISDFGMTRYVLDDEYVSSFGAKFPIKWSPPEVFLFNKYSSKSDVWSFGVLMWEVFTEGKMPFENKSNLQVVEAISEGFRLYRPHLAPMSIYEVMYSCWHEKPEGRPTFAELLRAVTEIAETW

[10] = Solubility of the compound at pH 7; format: physicochemical; conditions: buffer
[11] = Plasma protein binding in rat assessed as unbound fraction by rapid equilibrium dialysis method; format: ADME, cell-free
[12] = target: Receptor tyrosine-protein kinase erbB-2 (Homo sapiens, UniProt P04626); experiment: Binding affinity to ERBB2 (unknown origin) assessed as dissociation constant by KINOMEscan analysis
Sequence of Receptor tyrosine-protein kinase erbB-2 (P04626 whole entry): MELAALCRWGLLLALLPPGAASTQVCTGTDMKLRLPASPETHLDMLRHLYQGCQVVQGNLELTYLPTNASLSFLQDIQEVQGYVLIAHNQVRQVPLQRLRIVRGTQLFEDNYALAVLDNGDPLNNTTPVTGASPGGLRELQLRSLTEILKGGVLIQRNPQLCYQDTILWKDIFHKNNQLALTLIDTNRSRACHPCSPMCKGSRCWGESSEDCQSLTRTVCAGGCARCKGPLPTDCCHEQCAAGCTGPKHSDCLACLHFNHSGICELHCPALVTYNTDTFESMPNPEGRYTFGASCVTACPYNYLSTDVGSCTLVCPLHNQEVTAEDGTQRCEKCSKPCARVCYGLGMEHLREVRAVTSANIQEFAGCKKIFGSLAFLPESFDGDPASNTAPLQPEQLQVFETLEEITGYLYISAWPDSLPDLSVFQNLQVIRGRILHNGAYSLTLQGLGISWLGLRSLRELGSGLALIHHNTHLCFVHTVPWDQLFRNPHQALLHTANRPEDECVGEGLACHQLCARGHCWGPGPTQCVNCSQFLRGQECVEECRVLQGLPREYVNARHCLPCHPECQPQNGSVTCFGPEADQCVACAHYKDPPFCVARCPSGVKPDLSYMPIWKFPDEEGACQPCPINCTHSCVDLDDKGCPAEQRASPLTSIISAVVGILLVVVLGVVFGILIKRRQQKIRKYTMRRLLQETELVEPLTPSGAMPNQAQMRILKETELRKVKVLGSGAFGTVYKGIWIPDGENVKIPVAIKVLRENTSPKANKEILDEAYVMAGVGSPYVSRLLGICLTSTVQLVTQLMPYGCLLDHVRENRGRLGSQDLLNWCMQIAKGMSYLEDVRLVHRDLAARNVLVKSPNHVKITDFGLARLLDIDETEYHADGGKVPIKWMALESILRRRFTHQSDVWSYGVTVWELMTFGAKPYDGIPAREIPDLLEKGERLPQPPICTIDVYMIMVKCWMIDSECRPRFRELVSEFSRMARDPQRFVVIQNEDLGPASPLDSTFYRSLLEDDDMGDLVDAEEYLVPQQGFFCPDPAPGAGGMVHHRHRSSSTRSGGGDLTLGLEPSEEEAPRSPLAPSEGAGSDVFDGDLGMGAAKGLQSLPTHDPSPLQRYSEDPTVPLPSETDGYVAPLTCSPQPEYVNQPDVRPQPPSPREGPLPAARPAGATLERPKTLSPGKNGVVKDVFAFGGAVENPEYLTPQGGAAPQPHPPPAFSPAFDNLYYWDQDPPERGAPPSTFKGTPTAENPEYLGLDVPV

[13] = target: T3, Tyrosine-protein kinase Tec (Homo sapiens, UniProt P42680); experiment: Binding affinity to TEC (unknown origin) assessed as dissociation constant by KINOMEscan analysis
T3 sequence (P42680 whole entry): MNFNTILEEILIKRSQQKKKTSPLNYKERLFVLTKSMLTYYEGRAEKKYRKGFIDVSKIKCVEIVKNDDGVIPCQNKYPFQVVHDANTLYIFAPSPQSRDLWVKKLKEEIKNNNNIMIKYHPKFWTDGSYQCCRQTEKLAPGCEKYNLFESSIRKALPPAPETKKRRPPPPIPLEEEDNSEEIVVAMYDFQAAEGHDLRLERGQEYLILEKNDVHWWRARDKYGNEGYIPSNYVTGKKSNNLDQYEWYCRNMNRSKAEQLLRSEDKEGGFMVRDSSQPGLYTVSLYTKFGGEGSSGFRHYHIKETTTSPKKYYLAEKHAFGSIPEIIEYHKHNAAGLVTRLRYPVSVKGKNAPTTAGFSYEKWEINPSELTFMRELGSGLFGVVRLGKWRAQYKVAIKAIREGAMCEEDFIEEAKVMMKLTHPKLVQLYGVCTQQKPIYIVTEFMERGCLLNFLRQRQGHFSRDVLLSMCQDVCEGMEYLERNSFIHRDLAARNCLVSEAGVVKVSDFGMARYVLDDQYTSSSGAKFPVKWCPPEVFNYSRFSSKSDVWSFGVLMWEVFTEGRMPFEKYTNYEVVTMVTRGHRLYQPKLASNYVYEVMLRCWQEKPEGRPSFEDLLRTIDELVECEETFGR

T1 sequence (Q06187 whole entry): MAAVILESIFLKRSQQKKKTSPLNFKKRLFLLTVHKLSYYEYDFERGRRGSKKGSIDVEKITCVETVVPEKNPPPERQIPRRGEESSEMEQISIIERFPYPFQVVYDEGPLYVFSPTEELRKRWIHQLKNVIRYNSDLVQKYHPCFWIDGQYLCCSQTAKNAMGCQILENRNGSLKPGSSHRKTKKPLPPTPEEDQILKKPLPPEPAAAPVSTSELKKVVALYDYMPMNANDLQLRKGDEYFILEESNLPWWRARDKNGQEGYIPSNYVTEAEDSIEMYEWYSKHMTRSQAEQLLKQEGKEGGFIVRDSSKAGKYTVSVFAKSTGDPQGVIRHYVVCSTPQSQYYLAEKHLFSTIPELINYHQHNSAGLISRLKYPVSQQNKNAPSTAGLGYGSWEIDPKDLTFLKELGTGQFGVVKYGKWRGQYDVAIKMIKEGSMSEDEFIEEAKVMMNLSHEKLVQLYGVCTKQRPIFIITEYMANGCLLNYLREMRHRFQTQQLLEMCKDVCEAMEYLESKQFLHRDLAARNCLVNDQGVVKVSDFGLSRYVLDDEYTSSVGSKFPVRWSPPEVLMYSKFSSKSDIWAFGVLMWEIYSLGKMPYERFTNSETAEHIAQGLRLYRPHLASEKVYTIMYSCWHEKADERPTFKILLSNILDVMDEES

SMILES | pIC50 [1] | pIC50 [2] | CLint scaled [3] [L/h/kg] | CLint scaled [4] [L/h/kg] | also measured
C=CC(=O)N(C)CCOc1cnccc1-c1ccc(CN2CCN(CCC)CC2=O)c(C)c1 | 8.32 | 6.05 | 17.2 | 92.4 | –
Cc1cc(-c2ccnc(Nc3cnn(C)c3)n2)ccc1CN1CCN(C2CCC2)CC1=O | 7.96 | – | – | – | –
Cc1cc(-c2ccnc(Nc3cnn(C)c3)n2)ccc1CN1CCN(CC2CNC2)CC1=O | 5.38 | – | – | – | –
CC(=O)N(C)CCOc1cncnc1-c1ccc(CN2CCN(CC(C)(C)C)CC2=O)c(C)c1 | 5.77 | < 5.00 | 31.8 | 90 | fraction unbound [5]: 0.31
CC(C)CN1CCN(Cc2ccc(-c3ccnc(Nc4cnn(CCO)c4)n3)cc2Cl)C(=O)C1 | 8.40 | – | – | – | pIC50 [6]: 6.00
CCN1CCN(Cc2ccc(-c3ccnc(Nc4cnn(C)c4)n3)cc2C)C(=O)C1 | 6.28 | – | – | – | –
Cc1cc(-c2ccnc(Nc3cnn(C)c3)n2)ccc1CN1CCN(CC2CN(C)C2)CC1=O | 5.14 | – | – | – | –
Cc1cc(-c2ccnc(Nc3cnn(CCO)c3)n2)ccc1CN1CCN(CC(C)(C)C)CC1=O | 9.00 | – | – | – | pIC50 [6]: 6.09
CC(C)CN1CCN(Cc2ccc(-c3ccnc(Nc4cnn(CCO)c4)n3)cc2C(F)(F)F)C(=O)C1 | 9.00 | – | – | – | pIC50 [6]: 6.92
Cc1cc(-c2ccnc(Nc3cnn(C)c3)n2)ccc1CN1CCN(CC2(C)CC2)CC1=O | 8.15 | – | – | – | –
C=CC(=O)N(C)CCOc1c(-c2ccc(CN3CCN(CC(C)C)CC3=O)c(C)c2)ccnc1N | 9.16 | 6.44 | 20 | 47.6 | fraction unbound [5]: 0.29
Cc1cc(-c2ccnc(Nc3cnn(C)c3)n2)ccc1CN1CCN(C(C)(C)C)CC1=O | 7.37 | – | – | – | –
Cc1cc(-c2ccnc(Nc3cnn(C)c3)n2)ccc1CN1CCN(CC(C)C)CC1=O | 8.52 | – | – | – | pIC50 [6]: 6.51
C=CC(=O)N(C)CCOc1cnccc1-c1ccc(CN2CCN(C(C)C)CC2=O)c(C)c1 | 8.54 | 6.04 | 8.1 | 74.4 | –
C=CC(=O)N(C)CCOc1c(N)ncnc1-c1cc(F)cc(NC(=O)c2ccc(C3CC3)cc2F)c1C [REMIBRUTINIB] | – | 7.44 | 4.8 | 5.82 | clearance [7]: 12.8 L/h/kg; pKd [8]: 4.52; pKd [9]: 4.77
C=CC(=O)N(C)CCOc1cnccc1-c1ccc(CN2CCN(CC(C)(C)C)CC2=O)c(C)c1 | 9.36 | 6.52 | 48.5 | 221 | fraction unbound [5]: 0.11; solubility [10]: 0.055 mg/mL (≈ 115 µM)
Cc1cc(-c2ccnc(Nc3cnn(C4CN(C)C4)c3)n2)ccc1CN1CCN(CC(C)C)CC1=O | 8.15 | – | – | – | pIC50 [6]: 6.46
C=CC(=O)N(C)CCOc1cnccc1-c1ccc(CN2CCN(C)CC2=O)c(C)c1 | 6.50 | < 5.00 | 5.7 | 37.2 | –
C=CC(=O)N(C)CCOc1cncnc1-c1ccc(CN2CCN(CC(C)(C)C)CC2=O)cc1 | 7.77 | 5.33 | 16.2 | 55.8 | –
C=CC(=O)N(C)CCOc1cnccc1-c1ccc(CN2CCN(CC)CC2=O)c(C)c1 | 7.49 | 5.36 | 6.78 | 35.5 | –
Cc1cc(-c2ccnc(Nc3cnn(C)c3)n2)ccc1CN1CCN(CC(C)(C)C#N)CC1=O | 7.00 | – | – | – | –

SMILES | pIC50 [1] | pIC50 [2] | CLint scaled [3] [L/h/kg] | CLint scaled [4] [L/h/kg] | also measured
CC(C)(C)CN1CCN(Cc2ccc(-c3ccnc(Nc4cnn(CCO)c4)n3)cc2C(F)(F)F)C(=O)C1 | 9.40 | – | – | – | pIC50 [6]: 6.32
C=CC(=O)N(C)CCOc1cncnc1-c1ccc(CN2CCN(CC(C)(C)C)CC2=O)c(C)c1 | 8.87 | 6.20 | 82.2 | 150 | fraction unbound [5]: 0.14; solubility [10]: 0.013 mg/mL (≈ 27.1 µM)
Cc1cc(-c2ccnc(Nc3cnn(C)c3)n2)ccc1CN1CCN(CC2CC(F)(F)C2)CC1=O | 7.55 | – | – | – | –
Cc1cc(-c2ccnc(Nc3cnn(CCO)c3)n2)ccc1CN1CCN(CC(C)C)CC1=O | 8.52 | – | – | – | pIC50 [6]: 6.23
C=CC(=O)N(C)CCOc1cncnc1-c1ccc(CN2CCN(CC(C)C)CC2=O)c(C)c1 | 9.08 | 6.89 | 26.6 | 120 | fraction unbound [5]: 0.24; fraction unbound [11]: 0.07
C=CC(=O)N(C)CCOc1cnccc1-c1ccc(CN2CCN(CC3CCC3)CC2=O)c(C)c1 | 8.92 | 5.97 | 41.2 | 136 | –
C=CC(=O)N(C)CCOc1cncnc1-c1ccc(CN2CCN(CC(C)(C)C)CC2=O)c(F)c1 | 9.36 | 6.52 | 48.5 | 221 | –
C=CC(=O)N(C)CCOc1cncnc1-c1ccc(CN2CCN(CC(F)(F)F)CC2=O)c(C)c1 | 7.92 | 5.70 | 19 | 66.6 | –
C=CC(=O)N1CCC([C@@H]2CCNc3c(C(N)=O)c(-c4ccc(Oc5ccccc5)cc4)nn32)CC1 [ZANUBRUTINIB] | – | – | – | – | pKd [12]: 7.12; pKd [13]: 7.74; pKd [9]: 6.01
Cc1cc(-c2ccnc(Nc3cnn(C)c3)n2)ccc1CN1CCN(CC2CCOC2)CC1=O (stereo not drawn) | 6.74 | – | – | – | –
Cc1cc(-c2ccnc(Nc3cnn(C)c3)n2)ccc1CN1CCN(CC2CCC2)CC1=O | 8.52 | – | – | – | pIC50 [6]: 6.03
Cc1cc(-c2ccnc(Nc3cnn(C)c3)n2)ccc1CN1CCN(CC(F)(F)F)CC1=O | 6.80 | – | – | – | –
C=CC(=O)N(C)CCOc1cncnc1-c1ccc(CN2CCN(CC3CCC3)CC2=O)c(C)c1 | 8.80 | 5.97 | 23 | 113 | –
C=CC(=O)N(C)CCOc1cnccc1-c1ccc(CN2CCN(CC(C)C)CC2=O)c(C)c1 | 9.19 | 6.80 | 38 | 140 | –
Cc1cc(-c2ccnc(Nc3cnn(C)c3)n2)ccc1CN1CCN(CC(C)(C)C)CC1=O | 9.00 | < 5.00 | 13.7 | 29.6 | pIC50 [6]: 5.98; fraction unbound [5]: 0.014; solubility [10]: 0.011 mg/mL (≈ 24.6 µM)
C=CC(=O)N(C)CCOc1cncnc1-c1ccc(CN2CCN(CC3(C)CC3)CC2=O)c(C)c1 | 9.01 | 6.89 | 33.5 | 161 | –
Cc1cc(-c2ccnc(Nc3cnn(C)c3)n2)ccc1CN1CCN(CC2CN(O)C2)CC1=O | 7.10 | – | – | – | –
C=CC(=O)N(C)CCOc1cncnc1-c1ccc(CN2CCN(C3CCOC3)CC2=O)c(F)c1 (stereo not drawn) | 6.57 | < 5.00 | 4.86 | 18.5 | –
CC#CC(=O)N1CCC[C@H]1c1nc(-c2ccc(C(=O)Nc3ccccn3)cc2)c2c(N)nccn12 [ACALABRUTINIB] | – | – | – | – | pKd [8]: 7.74; pKd [9]: 7.62
Cc1cc(-c2ccnc(Nc3cnn(C4CN(C)C4)c3)n2)ccc1CN1CCN(CC(C)(C)C)CC1=O | 8.15 | – | – | – | pIC50 [6]: 5.58

Source: ChEMBL document CHEMBL5131445, “Optimization of a novel piperazinone series as potent selective peripheral covalent BTK inhibitors” (Bioorg Med Chem Lett, 2022)
